The record followed here is patent publication US20230114728A1 (Venatorx Pharmaceuticals, Inc., priority 2019, published 2023).

≈ marks a conversion by molar mass, not a printed value.

Assay [1] in a line: Bocillin-FL fluorescence polarization competition binding assay, A. baumannii PBP3. The settings on record: fluorescence polarization competition binding assay using Bocillin-FL; column 3; read-out: 4. baumannii PBP1a Potency. An excerpt: Example I: Experimental Method for Penicillin-Binding Protein Binding Assays with Bocillin-FL Via Fluorescence Polarization
To determine the ability of boronic acid-based test PBP inhibitors to bind Penicillin Binding Proteins (PBPs), Bocillin-FL (fluorescently-labeled penicillin V; ThermoFisher Scientific) was used in a fluorescence polarization (FP) competition binding assay to assess inhibitor binding to PBP2, PBP3 or PBP4 from Escherichia coli (K12), PBP3 from Pseudomonas aeruginosa (PA01), PBP1a, PBP2 and PBP3 from Acinetobacter baumannii (ATCC 19606), and PBP2 from Neiserria gonorrheae (FA19). PBPs were cloned and purified as described previously (E. coli PBPs, King, D. T, et al., ACS Infectious Diseases 2015, 1, 175-184; P. aeruginosa PBP3, Han et. al., PNAS 2010, 107 (51), 22002-22007; A. baumannii PBPs, Penwell et. al., Antimicrob. Agents Chemother. 2015, 59 (3), 1680-1689; N. gonorrhoeae PBP2, Singh et. al., J Biol. Chem. 2019, 294 (38), 14020-14032). To establish assay conditions for competition binding, enzyme titration/saturation binding experiments were initially performed. Bocillin-FL was prepared at 0.2 μM in a buffer comprised of 50 mM Hepes (pH 8.0), 300 mM NaCl and 5% (v/v) glycerol for reactions with E. coli, P. aeruginosa and N. gonorrhoeae PBPs, and 25 mM Tris (pH 8.0), 200 mM NaCl and 10% (v/v) glycerol and 0.005% (v/v) Tween 20 for reactions with A. baumannii PBPs. Saturation binding was performed by mixing 40 μl of PBP solutions ranging in concentrations from 0-24 μM with 40 μl of the 0.2 μM Bocillin-FL solution, in individual wells of a black 384-well microplate. FP was measured immediately upon mixing (Excitation, 490 nm; Emission, 520 nm; g-factor, 0.96), using a Cytation3 (BioTek) microplate reader and measured continuously for up to 120 minutes. […] The competition binding assay (80 μl final volume) was validated using beta-lactams and PBPs at final concentrations of: 1.5 μM, E. coli PBP3; 0.75 μM, P. aeruginosa PBP3; 1 μM A. baumannii PBP1a; 2.5 μM A. baumannii PBP2; 0.2 μM A. baumannii PBP3; and […] N. gonorrhoeae PBP2. Bocillin-FL was at 0.1 μM (0.05 μM with A. baumannii PBP1a) and beta-lactam concentrations ranged from 0-1000 μM. […] Bocillin-FL was added and the FP immediately measured for up to 60 minutes (90 minutes for E. coli PBP2). […] The beta-lactam potency was reported as the concentration of beta-lactam required to reduce the amount of PBP bound-Bocillin-FL by 50% (EC50). […] Binding assays for boronic acid PBP inhibitors were performed in an identical fashion for the respective PBPs
On the technique in general: Polarisation of emitted light reports the rotation of a fluorescent probe.

For the next assay, the target named is T1, P. aeruginosa PBP3 (Pseudomonas aeruginosa, UniProt G3XD46).
T1 construct: made in house
Put plainly: Bocillin-FL fluorescence polarization competition binding assay, P. aeruginosa PBP3. The settings on record: fluorescence polarization competition binding assay using Bocillin-FL. The procedure, abridged:
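Inhibitor competition with Bocillin-FL for P. aeruginosa PBP3 was followed by fluorescence polarization on a Cytation3 (BioTek) reader, using g-factor 0.96, 490 nm excitation and 520 nm emission. The enzyme was at 0.75 μM and the probe at 0.1 μM in Hepes/NaCl/glycerol buffer, 80 μl per well. FP was recorded immediately after probe addition for up to 60 minutes. Potency was expressed as EC50, the concentration that reduces bound probe by 50%.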

Another assay relates to E. coli 901C. Nature of the assay: Broth microdilution MIC in CAMHB. Type of assay: cell-based. The settings on record: Escherichia coli; E. coli 901C (hyper-permeable); MHB; read-out: Minimum Inhibitory Concentration, E. coli 901C. The essentials: (§1)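 Hyper-permeable or efflux-deficient strains serve to probe outer-membrane penetration. Growth inhibition is scored visually after 16-20 h at 37° C in CAMHB, starting from 2-8×10^5 CFU/mL.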
In general terms: Dilution methods test growth across graded concentrations, often in twofold steps.

The next assay concerns A. baumannii ATCC 19606. Put plainly: Broth microdilution MIC in CAMHB. In kind it is cell-based. The settings on record: Acinetobacter baumannii, ATCC19606; MHB; read-out: Minimum Inhibitory Concentration, A. baumannii ATCC 19606. The procedure, abridged:
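Per CLSI broth microdilution, colonies were grown 3-5 h at 37° C in cation-adjusted Mueller Hinton broth, then diluted to a starting inoculum of 2-8×10^5 CFU/mL against 2-fold serial compound dilutions. Plates were incubated 16-20 h at 37° C, and MIC was read visually as the lowest concentration with no growth.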

The test system of a further assay is P. aeruginosa ATCC 35151. Put plainly: Broth microdilution MIC in CAMHB. Type of assay: cell-based. To be noted: Pseudomonas aeruginosa, ATCC35151; MHB; hyper-permeable strain; read-out: Minimum Inhibitory Concentration, P. aeruginosa ATCC 35151. The procedure, abridged:
as §1

Assay [2] has as its system K. pneumoniae UMM producing SHV-5 and KPC-2. Nature of the assay: Broth microdilution MIC in CAMHB. The settings on record: Klebsiella pneumoniae, read-out: Minimum Inhibitory Concentration, K. pneumoniae UMM. In kind it is cell-based. The procedure, abridged:
as §1

The test system of assay [3] is P. aeruginosa (ΔmexAB-oprM). Nature of the assay: Broth microdilution MIC in CAMHB. The settings on record: Pseudomonas aeruginosa, read-out: Minimum Inhibitory Concentration, P. aeruginosa ΔmexAB-OprM. In kind it is cell-based. The essentials: as §1
The next assay deals with E. coli AG100. Put plainly: Broth microdilution MIC in CAMHB. In kind it is cell-based. The settings on record: Escherichia coli; E. coli AG100 (wild-type parent); MHB; read-out: Minimum Inhibitory Concentration, E. coli AG100. The procedure, abridged: as §1
The test system of a further assay is E. coli ATCC 25922. Nature of the assay: Broth microdilution MIC in CAMHB. In kind it is cell-based. The settings on record: Escherichia coli, ATCC25922; E. coli ATCC 25922; MHB; read-out: Minimum Inhibitory Concentration, E. coli 25922. The procedure, abridged: as §1
The next assay deals with E. coli D22. Put plainly: Broth microdilution MIC in CAMHB. Type of assay: cell-based. The settings on record: Escherichia coli; E. coli D22 (hyper-permeable); MHB; read-out: Minimum Inhibitory Concentration, E. coli D22. The essentials:
as §1

For a further assay, the system named is P. aeruginosa ATCC 27853. Nature of the assay: Broth microdilution MIC in CAMHB. Type of assay: cell-based. To be noted: Pseudomonas aeruginosa, ATCC27853; MHB; read-out: Minimum Inhibitory Concentration, P. aeruginosa ATCC 27853. The procedure, abridged:
as §1

For assay [4], the system named is K. pneumoniae 848844 producing SHV-11 and KPC-2. Nature of the assay: Broth microdilution MIC in CAMHB. In kind it is cell-based. To be noted: Klebsiella pneumoniae, read-out: Minimum Inhibitory Concentration, K. pneumoniae 848844. The essentials: as §1
The next assay concerns E. coli AG100A. Nature of the assay: Broth microdilution MIC in CAMHB. Type of assay: cell-based. The settings on record: Escherichia coli, read-out: Minimum Inhibitory Concentration, E. coli AG100A. The procedure, abridged: as §1
The test system of assay [5] is K. pneumoniae SI-117 producing VIM-1. Put plainly: Broth microdilution MIC in CAMHB. To be noted: Klebsiella pneumoniae, read-out: Minimum Inhibitory Concentration, K. pneumoniae SI-117. Type of assay: cell-based. The essentials:
as §1

The target of a further assay is T2, E. coli K12 PBP3 (Escherichia coli, UniProt P0AD68).
T2 construct: made in house
Put plainly: biochemical. In kind it is binding. The procedure, abridged: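 A. baumannii PBP2 (2.5 μM) and PBP3 (0.2 μM) were run in 25 mM Tris pH 8.0 buffer with Tween 20; E. coli PBP3 (1.5 μM) and N. gonorrhoeae PBP2 ([…]) in 50 mM Hepes pH 8.0 buffer.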

T2 sequence (P0AD68 1-577): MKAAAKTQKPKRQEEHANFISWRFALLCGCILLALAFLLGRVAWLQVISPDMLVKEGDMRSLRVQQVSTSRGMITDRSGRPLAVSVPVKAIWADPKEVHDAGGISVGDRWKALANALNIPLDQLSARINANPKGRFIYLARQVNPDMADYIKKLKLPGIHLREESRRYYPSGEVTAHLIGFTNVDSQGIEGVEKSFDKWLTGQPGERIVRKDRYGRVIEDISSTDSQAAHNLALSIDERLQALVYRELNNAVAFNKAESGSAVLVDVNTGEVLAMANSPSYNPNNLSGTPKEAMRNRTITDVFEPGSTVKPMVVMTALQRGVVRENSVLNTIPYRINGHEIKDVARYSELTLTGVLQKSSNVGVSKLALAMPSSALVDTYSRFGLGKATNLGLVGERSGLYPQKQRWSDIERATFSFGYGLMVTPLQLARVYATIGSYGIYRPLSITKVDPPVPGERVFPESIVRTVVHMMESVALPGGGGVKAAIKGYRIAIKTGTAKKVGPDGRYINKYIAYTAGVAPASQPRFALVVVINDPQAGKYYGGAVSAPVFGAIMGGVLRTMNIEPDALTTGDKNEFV
T1 sequence (G3XD46 whole entry): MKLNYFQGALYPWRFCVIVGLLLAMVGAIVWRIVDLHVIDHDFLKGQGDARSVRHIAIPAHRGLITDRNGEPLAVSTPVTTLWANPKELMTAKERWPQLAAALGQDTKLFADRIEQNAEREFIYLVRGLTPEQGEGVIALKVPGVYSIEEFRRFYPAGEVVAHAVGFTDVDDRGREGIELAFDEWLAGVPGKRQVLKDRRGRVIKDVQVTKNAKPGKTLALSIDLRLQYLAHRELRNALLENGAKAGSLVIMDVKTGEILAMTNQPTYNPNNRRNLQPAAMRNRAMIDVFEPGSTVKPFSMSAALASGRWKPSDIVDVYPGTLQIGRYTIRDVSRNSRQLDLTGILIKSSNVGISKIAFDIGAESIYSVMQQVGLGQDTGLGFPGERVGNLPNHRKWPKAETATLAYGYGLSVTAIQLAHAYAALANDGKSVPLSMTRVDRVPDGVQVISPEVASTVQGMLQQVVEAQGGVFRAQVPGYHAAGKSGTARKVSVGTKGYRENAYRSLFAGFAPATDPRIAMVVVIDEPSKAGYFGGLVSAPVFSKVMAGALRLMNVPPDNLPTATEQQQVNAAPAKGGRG

As to `C[C@H]1CN(CCN)C(=O)C(=O)N1C(=O)N[C@@H](C(=O)N[C@H]1Cc2cccc(C(=O)O)c2OB1O)c1ncc(O)cc1F` [Example 14, (R)-3-((R)-2-((S)-4-(2-aminoethyl)-6-methyl-2,3-dioxopiperazine-1-carboxamido)-2-(3-fluoro-5-hydroxypyridin-2-yl)acetamido)-2-hydroxy-3,4-dihydro-2H-benzo[e][1,2]oxaborinine-8-carboxylic acid], the EC50 is below 10 µM in assay [1] and below 30 µM at E. coli K12 PBP3. The “P. aeruginosa PBP3 Potency” value at P. aeruginosa PBP3 is listed as “D (D represents a potency <10 μM)”. The MIC in the assay with E. coli 901C was 0.5 to 1 µg/mL (≈ 0.874 to 1.75 µM); with A. baumannii ATCC 19606 it was above 128 µg/mL; in the assay with P. aeruginosa ATCC 35151 it was 0.5 to 1 µg/mL (≈ 0.874 to 1.75 µM); in assay [2] it was 8 to 16 µg/mL (≈ 14 to 28 µM); in [3], 8 to 16 µg/mL (≈ 14 to 28 µM); in the assay on E. coli AG100, 8 to 16 µg/mL (≈ 14 to 28 µM). For the same compound, the MIC is 8 to 16 µg/mL (≈ 14 to 28 µM) in the assay on E. coli ATCC 25922; 2 to 4 µg/mL (≈ 3.49 to 6.99 µM) with E. coli D22; above 128 µg/mL with P. aeruginosa ATCC 27853; 32 to 64 µg/mL (≈ 55.9 to 112 µM) in assay [4]; 0.5 to 1 µg/mL (≈ 0.874 to 1.75 µM) in the assay with E. coli AG100A; 32 to 64 µg/mL (≈ 55.9 to 112 µM) in assay [5].

For `NCCCN1CCN(C(=O)N[C@@H](C(=O)N[C@H]2Cc3ccc(F)c(C(=O)O)c3OB2O)c2ncc(O)cc2F)C(=O)C1=O` [Example 16, (R)-3-((R)-2-(4-(3-aminopropyl)-2,3-dioxopiperazine-1-carboxamido)-2-(3-fluoro-5-hydroxypyridin-2-yl)acetamido)-7-fluoro-2-hydroxy-3,4-dihydro-2H-benzo[e][1,2]oxaborinine-8-carboxylic acid], the EC50 in assay [1] was 30 to 100 µM; at E. coli K12 PBP3, below 30 µM. For the same compound, the “P. aeruginosa PBP3 Potency” value at P. aeruginosa PBP3 is given as “D (D represents a potency <10 μM)”. In addition, the MIC in the assay on E. coli 901C was 2 to 4 µg/mL (≈ 3.39 to 6.78 µM); in the assay with A. baumannii ATCC 19606, above 128 µg/mL; with P. aeruginosa ATCC 35151 it was below 0.25 µg/mL; in [2], 32 to 64 µg/mL (≈ 54.2 to 108 µM); in assay [3] it was 8 to 16 µg/mL (≈ 13.6 to 27.1 µM); in the assay with E. coli AG100, 8 to 16 µg/mL (≈ 13.6 to 27.1 µM). The MIC in the assay on E. coli ATCC 25922 was in the range of 8 to 16 µg/mL (≈ 13.6 to 27.1 µM); in the assay on E. coli D22, 2 to 4 µg/mL (≈ 3.39 to 6.78 µM); with P. aeruginosa ATCC 27853 it was 32 to 64 µg/mL (≈ 54.2 to 108 µM); in assay [4], 32 to 64 µg/mL (≈ 54.2 to 108 µM); in the assay on E. coli AG100A it was 8 to 16 µg/mL (≈ 13.6 to 27.1 µM); in assay [5] it was 32 to 64 µg/mL (≈ 54.2 to 108 µM).
